Read-outs that look alike come from different tables or passages of the source.
System: HBV DNA in HepG2.2.15 cells
Assay: HBV in vitro assay quantitive qPCR test
Format: cell-based
Conditions: Hepatitis B virus, HepG2.2.15 cells
Experimental: • 1 Purpose of the test: • The content of HBV DNA in HepG2.2.15 cells was detected by real time quantitive qPCR test to evaluate an inhibitory action of the compound on HBV with an EC50 value of the compound as an indicator. • 2 Experimental materials: • 2.1 Cell lines: HepG2.2.15 Cells • HepG2.2.15 cell culture media (DMEM/F12, Invitrogen-11330057; 10% serum, Invitrogen-10099141; 100 units/ml Penicillin and 10 μg/ml Streptomycin, Invitrogen-15140122; 1% non-essential amino acid, Invitrogen-1140076; 2 mM L-GLUTAMINE, Invitrogen-25030081; 300 μg/ml Geneticin, Invitrogen-10131027 • 2.2 Reagents: • trypsin (Invitrogen-25300062) • DPBS (Hyclone-SH30028.01B) • DMSO (Sigma-D2650-100ML) • High-Throughput DNA Purification Kit (QIAamp 96 DNA Blood Kit, Qiagen-51162) • Quantitative Fast Start Universal Probe Reagent (FastStart Universal Probe Master, Roche-04914058001) • 2.3 Materials and Instruments: • 96-well cell culture plate (Corning-3599) • CO2 Incubator (HERA-CELL-240) • Optical Sealing Membrane (ABI-4311971) • Quantitative PCR 96-well Plate (Applied Biosystems-4306737) • Fluorescent Quantitative PCR Instrument (Applied Biosystems-7500 real time PCR system) • 3. Testing steps and Methods: • 3.1 HepG2.2.15 cells (4×10^4 cells/well) were planted into a 96-well plate, and at 37° C., 5% CO2 cultured overnight. • 3.2 On Day 2, the compounds were diluted in totally 8 concentrations with a dilution gradient of three times. The compounds at different concentrations were added into the culture wells in duplicate. The final concentration of DMSO in the culture media was 1%. 1 μM GLS4 was used as 100% inhibition control; 1% DMSO as 0% inhibition control. • 3.3 On Day 5, replacing with the fresh culture media containing the compound was performed. • 3.4 On Day 8, the culture media in the culture wells was collected, and DNA was extracted with a High-Throughput DNA Purification Kit (Qiagen-51162), See Specification of the product for specific steps. • 3.5 Preparation of PCR Reaction Mixture was shown in Table 1:
• 3.6 To each well of a 96-well PCR plate was added 15 μl reaction mixture, and then to each well was added 10 μl sample DNA or HBV DNA standard. • 3.7 The reaction conditions of PCR were: heating at 95° C. for 10 minutes; then at 95° C. denaturing for 15 seconds, and at 60° C. extending for 1 minute, totally 40 cycles. • 3.8 Data Analysis: • 3.8.1 The inhibition percentage was calculated: % Inh.=[1−(DNA copy number in sample−DNA copy number in 1 μM GLS4)/(DNA copy number in DMSO control−DNA copy number in 1 μM GLS4)]×100. • 3.8.2 Calculating EC50: the concentration of the compound for 50% inhibition of HBV (EC50) was calculated by using GraphPad Prism Software. • 4 Testing Results • The testing results were shown in Table 3: […]

[1] = qPCR assay, read-out: Concentration for 50% inhibition of HBV (EC50)value
[2] = summary list of target compounds, Examples 166-220 (values of Table 3), read-out: BIOACTIVITY (inhibitory actions on HBV DNA, EC50)

## COC(=O)C1=C2C[C@H](NS(C)(=O)=O)CN2C(c2nccs2)=N[C@@H]1c1ccc(F)c(F)c1F [Example 168]
[1]
  EC50: 0.1 to 0.5 µM
[2]
  EC50: 0.1 to 0.5 µM

## COC(=O)C1=C2C[C@H](NS(N)(=O)=O)CN2C(c2nccs2)=N[C@@H]1c1ccc(F)c(F)c1Cl [Example 197]
[1]
  EC50: 1 to 5 µM
[2]
  EC50: 1 to 5 µM

## COC(=O)C1=C2C[C@H](NS(=O)(=O)c3ccccn3)CN2C(c2nccs2)=N[C@H]1c1ccc(F)cc1Cl [Example 200]
[1]
  EC50: < 0.1 µM
[2]
  EC50: < 0.1 µM
